The values that follow come from the NIST ThermoML archive (doi:10.1016/j.tca.2006.03.023).

± gives the expanded uncertainty stated by the source.

For this series the following is noted: 298 K; 101.33 kPa; Crystal; X-ray diffraction.

As usually defined, the mass density is mass per unit of volume. Consider `O=P([O-])([O-])[O-].[Eu+3]` [europium phosphate], for which the mass density stood at 1476 ± 2 kg/m3.

Turning to `O=P([O-])([O-])[O-].[Sm+3]` [samarium phosphate], the mass density is given as 1428 ± 2 kg/m3.
